According to the Deep4Chem optical property database:
Where “and” joins values, the source holds several entries; their conditions need not be identical. Identical values can stand only once. Each block holds one compound with its values, some of them ahead of it.

Experiment: solvent given as SMILES

SMILES: Brc1ccc(-c2nc(-c3ccc(C#Cc4ccc(-n5c6ccccc6c6ccccc65)cc4)cc3)nc(-c3ccc(C#Cc4ccc(-n5c6ccccc6c6ccccc65)cc4)cc3)n2)cc1
emission maximum (in C1CCOC1): 465 nm
emission maximum (in CC#N): 563 nm
emission maximum (in CCCCCC): 411 nm
emission maximum (in Cc1ccccc1): 432 nm
emission maximum (in ClCCl): 498 nm

SMILES: O=C1c2cccc3c(-n4c5ccccc5c5ccccc54)ccc(c23)C(=O)N1c1ccccc1
emission maximum (in C1CCOC1): 546 nm
emission maximum (in CCCCCC): 443 nm
emission maximum (in ClC(Cl)Cl): 495 nm
emission maximum (in ClCCl): 568 nm

SMILES: c1ccc(-c2nc(-c3ccccc3)nc(-c3ccc(-n4c5ccc(-c6ccc7sc8ccccc8c7c6)cc5c5cc(-c6ccc7sc8ccccc8c7c6)ccc54)cc3)n2)cc1
emission maximum (in CCOC(C)=O): 473 nm
emission maximum (in CN(C)C=O): 531 nm
emission maximum (in Cc1ccccc1): 437 nm

SMILES: O=C(/C=C(\O)c1ccc(N2c3ccccc3Oc3ccccc32)cc1)c1ccc(N2c3ccccc3Oc3ccccc32)cc1
emission maximum (in Cc1ccccc1): 594 nm
emission maximum (in c1ccc2c(c1)c1ccccc1n2-c1ccc(-c2ccc(-n3c4ccccc4c4ccccc43)cc2)cc1): 550.32 nm

SMILES: COc1ccc(C2=CC(c3cc(OC)cc(OC)c3)=[O+][B-](F)(F)O2)cc1
emission maximum (in CC#N): 587.1 nm
emission maximum (in CC(C)=O): 556.04 nm
emission maximum (in CCCCCC): 410.21 nm
emission maximum (in Cc1ccccc1): 450.94 nm
emission maximum (in ClCCl): 525 nm

SMILES: c1cncc(-c2ccc(-c3c4ccccc4c(-c4ccc(-c5cccnc5)cc4)c4ccccc34)cc2)c1
emission maximum (in ClCCl): 426 nm

SMILES: CCCCCCCCOc1ccc(C2=C3C(C)=C(C#Cc4ccc(B(c5c(C)cc(C)cc5C)c5c(C)cc(C)cc5C)cc4)C(C)=[N+]3[B-](F)(F)n3c(C)c(C#Cc4ccc(B(c5c(C)cc(C)cc5C)c5c(C)cc(C)cc5C)cc4)c(C)c32)cc1
emission maximum (in CC#N): 598 nm
emission maximum (in CCCCCC): 604 nm
emission maximum (in ClCCl): 602 nm

SMILES: O=c1c2ccccc2n(-c2ccc(-c3ccc(-n4c5ccccc5c(=O)c5ccccc54)cc3)cc2)c2ccccc12
emission maximum (in ClCCl): 405 nm

SMILES: CN1CCN(c2ccc3c4c(cccc24)C(=O)c2ccccc2-3)CC1
emission maximum (in C1CCCCC1): 533 nm
emission maximum (in C1CCOC1): 593 nm
emission maximum (in C1COCCO1): 584 nm
emission maximum (in CC1COC(=O)O1): 619 nm
emission maximum (in CC#N): 619 nm
emission maximum (in CC(C)=O): 615 nm
emission maximum (in CCCCCCCCO): 626 nm
emission maximum (in CCCCCO): 635 nm
emission maximum (in CCCCO): 632 nm
emission maximum (in CCCO): 637 nm
emission maximum (in CCO): 640 nm
emission maximum (in CCOC(C)=O): 595 nm
emission maximum (in CN(C)C=O): 621 nm
emission maximum (in CO): 645 nm
emission maximum (in CS(C)=O): 624 nm
emission maximum (in Cc1ccccc1): 569 nm
emission maximum (in ClC(Cl)Cl): 601 nm

SMILES: CCCCCCOc1ccc(C#Cc2ccc(C#Cc3ccc(OCCCCCC)c(OCCCCCC)c3)c3nsnc23)cc1OCCCCCC
emission maximum (in C1CCCCC1): 504 nm
emission maximum (in CCOC(C)=O): 550 nm
emission maximum (in CN(C)C=O): 600 nm
emission maximum (in COc1ccccc1): 561 nm
emission maximum (in Cc1ccccc1): 537 nm
emission maximum (in ClC(Cl)Cl): 580 nm
emission maximum (in ClCCCl): 581 nm
emission maximum (in ClCCl): 577 nm

SMILES: C(=C(c1ccccc1)c1ccccc1)c1ccc(C=C(c2ccccc2)c2ccccc2)cc1
emission maximum (in C1CCOC1): 461 nm

SMILES: COc1ccc(-c2c3ccc(=[N+]4CCCCC4)cc-3oc3cc(N4CCCCC4)ccc23)cc1
emission maximum (in CCO): 582 nm
emission maximum (in ClCCl): 582 nm

SMILES: CCCCN(CCCC)c1ccc(C#Cc2cc(C#Cc3c(F)c(F)c(F)c(F)c3F)c(C#Cc3c(F)c(F)c(F)c(F)c3F)cc2C#Cc2ccc(N(CCCC)CCCC)cc2)cc1
emission maximum (in ClCCl): 556 nm
emission maximum (in c1ccccc1): 505 nm

SMILES: CCCCN(CCCC)c1ccc2c(c1)C#CC#Cc1cc(N(CCCC)CCCC)ccc1C#Cc1cc(c3cc1C#Cc1ccc(C(F)(F)F)cc1C#CC#Cc1cc(C(F)(F)F)ccc1C#C3)C#C2
emission maximum (in ClCCl): 551 nm
emission maximum (in c1ccccc1): 499 nm

SMILES: CN(C)c1ccc(/C=C/c2cc[n+](C)cc2)cc1
emission maximum (in C1CCOC1): 590 nm
emission maximum (in CC1COC(=O)O1): 600 nm
emission maximum (in CC#N): 625 nm and 605 nm
emission maximum (in CC(C)=O): 602 nm
emission maximum (in CC(C)O): 591 nm
emission maximum (in CCO): 594 nm
emission maximum (in CCOC(C)=O): 595 nm
emission maximum (in CN(C)C=O): 596 nm
emission maximum (in CO): 596 nm
emission maximum (in CS(C)=O): 610 nm
emission maximum (in ClC(Cl)Cl): 585 nm
emission maximum (in ClCCl): 608 nm
emission maximum (in O): 624 nm and 597 nm
emission maximum (in c1ccncc1): 605 nm

SMILES: N#Cc1c(-n2c3ccccc3c3ccccc32)c(-n2c3ccccc3c3ccccc32)c(C#N)c(-n2c3ccccc3c3ccccc32)c1-n1c2ccccc2c2ccccc21
emission maximum (in Cc1ccccc1): 535 nm

SMILES: c1ccc2cc3c(cc2c1)oc1c2oc4cc5ccccc5cc4c2c2ccccc2c31
emission maximum (in C1CCOC1): 399 nm

SMILES: C(=C\c1ccc(N(c2ccccc2)c2ccccc2)cc1)/c1ccccc1
emission maximum (in CC#N): 455 nm
emission maximum (in CCCCCC): 395 nm

SMILES: CCCCCCCCC1(CCCCCCCC)c2cc(-c3ccc([N+](=O)[O-])cc3)ccc2-c2ccc(-c3ccc([N+](=O)[O-])cc3)cc21
emission maximum (in CN(C)C=O): 569 nm
emission maximum (in CS(C)=O): 589 nm
emission maximum (in ClC(Cl)Cl): 538 nm

SMILES: CCCCCCCCCCOc1ccc2cc(C3=C4C(=O)N(CC(OCC)OCC)C(c5cc6ccc(OCCCCCCCCCC)cc6o5)=C4C(=O)N3CC(OCC)OCC)oc2c1
emission maximum (in ClC(Cl)Cl): 613 nm

SMILES: O=C(O)CC[N+]1=c2cc3c(cc2CCC1)=Cc1c(c2cc4c5c(c2oc1=O)CCCN5CCC4)O3
emission maximum (in CC#N): 683 nm
emission maximum (in CO): 679 nm
emission maximum (in ClCCl): 675 nm
emission maximum (in O): 684 nm

SMILES: CCCCCCCCOc1ccc(C2=C(c3ccc(OCCCCCCCC)cc3)C(C)(C)c3ccccc32)cc1
emission maximum (in C1CCCCC1): 390 nm

SMILES: CCC1(CC)c2cc(-c3ccc4c(c3)C(CC)(CC)c3cc(C(C)(C)C)ccc3-4)ccc2-c2ccc(-c3ccc4c(c3)C(CC)(CC)c3cc(C(C)(C)C)ccc3-4)cc21
emission maximum (in CO): 385.59 nm

SMILES: CCCCCCC1(CCCCCC)c2cc(-c3ccc(-c4ccc(-c5ccc(-c6ccc7c(c6)C(CCCCCC)(CCCCCC)c6cc(-n8c9ccccc9c9ccccc98)ccc6-7)s5)c5nsnc45)s3)ccc2-c2ccc(-n3c4ccccc4c4ccccc43)cc21
emission maximum (in ClCCl): 611 nm

SMILES: CCC(C)(C)c1ccc2c(c1)C(CCOC)(CCOC)c1cc(-c3ccc4c(c3)C(CCOC)(CCOC)c3cc(C(C)(C)CC)ccc3-4)ccc1-2
emission maximum (in C1CCCCC1): 371 nm

SMILES: O=C1CCCC2=C1CC1=C(CCCC1=O)N2NC(=O)c1ccc(O)cc1
emission maximum (in CC#N): 434 nm
emission maximum (in CC(C)=O): 432 nm
emission maximum (in CCCCCO): 447 nm
emission maximum (in CO): 449 nm
emission maximum (in ClC(Cl)Cl): 444 nm
emission maximum (in ClCCl): 436 nm

Continued, values first:

emission maximum (in C1CCOC1): 514 nm
emission maximum (in ClC(Cl)Cl): 577 nm
emission maximum (in ClCCl): 593 nm
SMILES: COc1cc2cc(OC)c(C#Cc3ccc([N+](=O)[O-])cc3)cc2cc1C#Cc1ccc([N+](=O)[O-])cc1

emission maximum (in ClCCl): 422 nm
SMILES: CCOC(=O)c1c(-c2cc3ccc(OC)cc3oc2=O)nn(-c2cccc(C)c2)c1C(=O)OCC

emission maximum (in ClCCl): 429 nm
SMILES: CN(C)c1ccc(-c2cc(-c3ccc(N(C)C)cc3)ncn2)cc1

emission maximum (in C1CCCCC1): 295.77 nm
SMILES: Cc1ccc(C)c(C)c1

emission maximum (in ClC(Cl)Cl): 669 nm
SMILES: Cc1cc(C)c(C2=C3C=CC=[N+]3[B-]3(c4cccc5ccccc45)Oc4cc(O)cc5c6ccc(C)cc6c6cc2n3c6c45)c(C)c1 (stereo not drawn)

emission maximum (in C1CCCCC1): 425 nm
SMILES: C(#Cc1cnc(C#Cc2ccccc2)nc1)c1ccccc1

emission maximum (in ClC(Cl)Cl): 466.4 nm
SMILES: F[B-]1(F)OC(c2ccc(Br)cc2)=Cc2c3ccccc3cc[n+]21

emission maximum (in CS(C)=O): 409 nm
SMILES: Fc1ccc2sc3nc(-c4ccccc4)sc3c2c1

emission maximum (in CCO): 582 nm
emission maximum (in O): 568 nm
SMILES: COc1cccc(OC)c1-c1c2ccc(=[N+]3CCNCC3)cc-2oc2cc(N3CCNCC3)ccc12

emission maximum (in O): 663 nm
SMILES: COc1ccccc1C1=C2C=CC(=[N+](C)C)C=C2[Si](C)(C)c2cc(N(C)C)ccc21

emission maximum (in C1CCOC1): 371 nm
SMILES: CCCCCCCCCn1c(-c2cc(-c3nc4ccc(C)cc4n3CCCCCCCCC)cc(-c3nc4ccc(C)cc4n3CCCCCCCCC)c2)nc2ccc(C)cc21

emission maximum (in ClCCl): 450 nm
SMILES: CCCCn1c2ccccc2c2cc(C#Cc3ccc4ccc5cccc6ccc3c4c56)ccc21

emission maximum (in ClCCl): 355 nm
SMILES: Cc1cc2ccccc2c2c1c1ccccc1n2C(=O)OC(C)(C)C

emission maximum (in CC1CCCO1): 472 nm
SMILES: O=c1cc2c(S(=O)(=O)O)c(O)c3cccc4ccc(o1)c2c43

emission maximum (in CC#N): 489 nm
SMILES: COc1cc(-c2nc(-c3ccccc3)c3ccccn23)ccc1O

emission maximum (in ClC(Cl)Cl): 496 nm
SMILES: F[B-]1(F)OC(c2ccc(N3CCCC3)cc2)=Cc2cccc[n+]21

emission maximum (in ClC(Cl)Cl): 565 nm
SMILES: c1csc(-c2ccc(-c3cccs3)c3nsnc23)c1

emission maximum (in ClC(Cl)Cl): 464.6 nm
SMILES: F[B-]1(F)OC(c2ccc(C(F)(F)F)cc2)=Cc2c3ccccc3cc[n+]21

emission maximum (in CC1CCCO1): 645 nm
SMILES: CC1=CC(/C=C/c2ccc(C)cc2)=[N+]2C1=C(c1ccccc1)c1c(C)cc(/C=C/c3ccc(C)cc3)n1[B-]2(F)F

emission maximum (in O): 426 nm
SMILES: Cc1cc(/N=C/c2cc(S(=O)(=O)[O][Na])ccc2O)c(/N=C/c2cc(S(=O)(=O)[O][Na])ccc2O)cc1C

emission maximum (in C1CCOC1): 510 nm
SMILES: COc1ccc(C(=Cc2ccc(/C=C(\C#N)c3ccccc3)cc2)c2ccc(OC)cc2)cc1

emission maximum (in CC#N): 437 nm
SMILES: Cc1cc2nc3[nH]c(=O)[nH]c(=O)c3nc2cc1C

emission maximum (in C1CCCCC1): 375 nm
emission maximum (in CC#N): 519 nm
emission maximum (in CO): 427 nm
emission maximum (in ClC(Cl)Cl): 437 nm
SMILES: CN(C)c1ccc(-c2nc(C#N)c(C#N)n2C)cc1

emission maximum (in ClC(Cl)Cl): 414 nm
SMILES: CCCCn1c2ccc(-c3ccccc3)cc2c2ccc3c4cc(-c5ccccc5)ccc4n(CCCC)c3c21

emission maximum (in ClCCl): 683 nm
SMILES: C1=CC2C=c3c(cc4cccc5cc6ccccc6c3c45)C3=c4ccccc4=CC(=C1)C32 (stereo not drawn)

emission maximum (in CC#N): 688 nm
emission maximum (in CS(C)=O): 703 nm
emission maximum (in ClC(Cl)Cl): 691 nm
SMILES: C#CCn1c2ccccc2c2cc(/C=C/C3=[N+]4C(=C(c5ccc(I)cc5)c5c(C)cc(/C=C/c6ccc7c(c6)c6ccccc6n7CC#C)n5[B-]4(F)F)C(C)=C3)ccc21

emission maximum (in CC#N): 556 nm
SMILES: CN(C)c1ccc(-n2c(-c3ccncc3)nc3ccccc32)cc1

emission maximum (in ClCCl): 634 nm
SMILES: COc1c2ccccc2c(OC)c2c(C#CC(C)(C)C)c3cc4sccc4cc3c(C#CC(C)(C)C)c12
